For the first test, the system named is PEER. Put plainly: selective drug sensitivity score (sDSS, relative to normal bone marrow) (sDSS (score)); higher = more potent and effective on the cell line relative to normal bone marrow cells. The settings on record: 72 h.
`Cc1c(-c2ccc(N3CCc4cccc(C(=O)Nc5nc6ccccc6s5)c4C3)nc2C(=O)O)cnn1CC12CC3CC(CC(C3)C1)C2` (top concentration 1000 nM): the “selective drug sensitivity score” value was found to be 19.3.
Still for that read-out and setting: the figure for `O=C(NOC[C@H](O)CO)c1ccc(F)c(F)c1Nc1ccc(I)cc1F` (top concentration 1000 nM) is 0.94.
On the same count and under the same terms, the value for `CO[C@@H](C)Cn1c(=O)n(C)c2cnc3ccc(-c4cncc(C(C)(C)O)c4)cc3c21` (top concentration 2500 nM) was 3.38; that for `Cc1cccc(CC(=O)N2CCc3c2ccc(-c2cn(C)c4ncnc(N)c24)c3F)n1` (top concentration 2500 nM) was 7.02.
On the same count and under the same terms, the figure for `CNC(=O)c1ccccc1Nc1nc(Nc2ccc3c(c2OC)CCC[C@H](N2CCN(CCO)CC2)C3)ncc1Cl` (top concentration 5000 nM) is -1.44.
For the compound `COc1cc2ncnc(Oc3cccc(NC(=O)Nc4cc(C(C)(C)C(F)(F)F)on4)c3)c2cc1OC` (top concentration 10000 nM), the “selective drug sensitivity score” value was 17.8.
On the same count and under the same terms, the value for `C[C@@H](Oc1cc(-n2cnc3ccc(CN4CCN(C)CC4)cc32)sc1C(N)=O)c1ccccc1C(F)(F)F` (top concentration 10000 nM) was 30; that for `Nc1nccc(-c2c(-c3ccc(F)cc3)ncn2C2CCCCC2)n1` (top concentration 10000 nM) was 1.4.
On the same count and under the same terms, the figure for `O=C(O)c1ccc(-c2c[nH]c3ncc(-c4ccccc4)cc23)cc1C1CCCC1` (top concentration 10000 nM) is 2.56.
Still for that read-out and setting: the figure for `C[C@@H]1CN(CC(=O)Nc2ccc3c(c2)Cc2cccc(-c4cc(=O)cc(N5CCOCC5)o4)c2S3)C[C@H](C)O1` (top concentration 25000 nM) is 2.62; for `COc1ccc2[nH]cc(/C=C3\C(=O)Nc4ccc(NC(=O)CCN5CCCCC5)cc43)c2c1` (top concentration 50000 nM) it is 2.18.
For `Cc1nn(C)c(COc2ccc(N3CCN(S(=O)(=O)N(C)C)CC3)cc2)c1-c1cccc2c(CCCOc3cccc4ccccc34)c(C(=O)O)n(CCN3CCOCC3)c12` (top concentration 50000 nM), the “selective drug sensitivity score” value was 10.2.
Still for that read-out and setting: the value for `C[C@H](Nc1ncnc2[nH]cnc12)c1cc2ccc(F)cc2nc1-c1ccccn1` [AMG319] (top concentration 1000 nM) was -1.42.
Still for that read-out and setting: the figure for `C=CCn1c(=O)c2cnc(Nc3ccc(N4CCN(C)CC4)cc3)nc2n1-c1cccc(C(C)(C)O)n1` [AZD1775] (top concentration 10000 nM) is 12.2.
The same measure, in the same setting: the figure for `NC(=O)Nc1cc(-c2cccc(F)c2)sc1C(=O)N[C@H]1CCCNC1` [AZD7762] (top concentration 1000 nM) is -0.7; for `Cc1cc([C@@H](C)Nc2ccccc2C(=O)O)c2nc(N3CCOCC3)cc(=O)n2c1` [AZD-6482] (top concentration 2500 nM) it is -0.28.
For `CN(C)Cc1c(C(=O)NCCOc2ccc(C(=O)NO)cc2)oc2ccccc12` [Abexinostat] (top concentration 10000 nM), the “selective drug sensitivity score” value is 6.16.
Still for that read-out and setting: the value for `S=C(NCc1ccc2c(c1)OCO2)N1CCN(c2ncnc3c2oc2ccccc23)CC1` [Amuvatinib] (top concentration 10000 nM) was 9.36; that for `CC(=O)OC[C@H]1O[C@@H]([S-])[C@H](OC(C)=O)[C@@H](OC(C)=O)[C@@H]1OC(C)=O.CCP(CC)CC.[Au+]` [Auranofin] (top concentration 2500 nM) was 0.74.

A further test has as its system REH. Described as above. The settings on record: 72 h.
For `Cc1c(-c2ccc(N3CCc4cccc(C(=O)Nc5nc6ccccc6s5)c4C3)nc2C(=O)O)cnn1CC12CC3CC(CC(C3)C1)C2` (top concentration 1000 nM), the “selective drug sensitivity score” value was -2.26.
Still for that read-out and setting: the value for `O=C(NOC[C@H](O)CO)c1ccc(F)c(F)c1Nc1ccc(I)cc1F` (top concentration 1000 nM) was -4.16.
In the case of `CO[C@@H](C)Cn1c(=O)n(C)c2cnc3ccc(-c4cncc(C(C)(C)O)c4)cc3c21` (top concentration 2500 nM), the “selective drug sensitivity score” value is 6.78.
Same read-out and setting: the value for `Cc1cccc(CC(=O)N2CCc3c2ccc(-c2cn(C)c4ncnc(N)c24)c3F)n1` (top concentration 2500 nM) was 9.62; that for `CNC(=O)c1ccccc1Nc1nc(Nc2ccc3c(c2OC)CCC[C@H](N2CCN(CCO)CC2)C3)ncc1Cl` (top concentration 5000 nM) was -2.24.
In the case of `COc1cc2ncnc(Oc3cccc(NC(=O)Nc4cc(C(C)(C)C(F)(F)F)on4)c3)c2cc1OC` (top concentration 10000 nM), the “selective drug sensitivity score” value amounted to 5.
Turning to `C[C@@H](Oc1cc(-n2cnc3ccc(CN4CCN(C)CC4)cc32)sc1C(N)=O)c1ccccc1C(F)(F)F` (top concentration 10000 nM), the “selective drug sensitivity score” value amounted to 21.8.
Same read-out and setting: the value for `Nc1nccc(-c2c(-c3ccc(F)cc3)ncn2C2CCCCC2)n1` (top concentration 10000 nM) was 0.8; that for `O=C(O)c1ccc(-c2c[nH]c3ncc(-c4ccccc4)cc23)cc1C1CCCC1` (top concentration 10000 nM) was -1.44.
On to `C[C@@H]1CN(CC(=O)Nc2ccc3c(c2)Cc2cccc(-c4cc(=O)cc(N5CCOCC5)o4)c2S3)C[C@H](C)O1` (top concentration 25000 nM), for which the “selective drug sensitivity score” value stood at 6.12.
Same read-out and setting: the value for `COc1ccc2[nH]cc(/C=C3\C(=O)Nc4ccc(NC(=O)CCN5CCCCC5)cc43)c2c1` (top concentration 50000 nM) was -1.62; that for `Cc1nn(C)c(COc2ccc(N3CCN(S(=O)(=O)N(C)C)CC3)cc2)c1-c1cccc2c(CCCOc3cccc4ccccc34)c(C(=O)O)n(CCN3CCOCC3)c12` (top concentration 50000 nM) was 8.46.
On the same count and under the same terms, the figure for `C[C@H](Nc1ncnc2[nH]cnc12)c1cc2ccc(F)cc2nc1-c1ccccn1` [AMG319] (top concentration 1000 nM) is -1.02.
Same read-out and setting: the value for `C=CCn1c(=O)c2cnc(Nc3ccc(N4CCN(C)CC4)cc3)nc2n1-c1cccc(C(C)(C)O)n1` [AZD1775] (top concentration 10000 nM) was 13.5.
In the case of `NC(=O)Nc1cc(-c2cccc(F)c2)sc1C(=O)N[C@H]1CCCNC1` [AZD7762] (top concentration 1000 nM), the “selective drug sensitivity score” value is -1.1.
Same read-out and setting: the value for `Cc1cc([C@@H](C)Nc2ccccc2C(=O)O)c2nc(N3CCOCC3)cc(=O)n2c1` [AZD-6482] (top concentration 2500 nM) was 7.82; that for `CN(C)Cc1c(C(=O)NCCOc2ccc(C(=O)NO)cc2)oc2ccccc12` [Abexinostat] (top concentration 10000 nM) was 2.26; that for `S=C(NCc1ccc2c(c1)OCO2)N1CCN(c2ncnc3c2oc2ccccc23)CC1` [Amuvatinib] (top concentration 10000 nM) was 5.56.
Still for that read-out and setting: the figure for `CC(=O)OC[C@H]1O[C@@H]([S-])[C@H](OC(C)=O)[C@@H](OC(C)=O)[C@@H]1OC(C)=O.CCP(CC)CC.[Au+]` [Auranofin] (top concentration 2500 nM) is 6.04.

The next test deals with SEM cells. The description is as above. Conditions: 72 h.
Take `Cc1c(-c2ccc(N3CCc4cccc(C(=O)Nc5nc6ccccc6s5)c4C3)nc2C(=O)O)cnn1CC12CC3CC(CC(C3)C1)C2` (top concentration 1000 nM): the “selective drug sensitivity score” value is -1.66.
Still for that read-out and setting: the figure for `O=C(NOC[C@H](O)CO)c1ccc(F)c(F)c1Nc1ccc(I)cc1F` (top concentration 1000 nM) is -3.16.
Still for that read-out and setting: the figure for `CO[C@@H](C)Cn1c(=O)n(C)c2cnc3ccc(-c4cncc(C(C)(C)O)c4)cc3c21` (top concentration 2500 nM) is 5.08.
Same read-out and setting: the figure for `Cc1cccc(CC(=O)N2CCc3c2ccc(-c2cn(C)c4ncnc(N)c24)c3F)n1` (top concentration 2500 nM) is 0.32; for `CNC(=O)c1ccccc1Nc1nc(Nc2ccc3c(c2OC)CCC[C@H](N2CCN(CCO)CC2)C3)ncc1Cl` (top concentration 5000 nM) it is 3.06; for `COc1cc2ncnc(Oc3cccc(NC(=O)Nc4cc(C(C)(C)C(F)(F)F)on4)c3)c2cc1OC` (top concentration 10000 nM) it is 14.5.
For the compound `C[C@@H](Oc1cc(-n2cnc3ccc(CN4CCN(C)CC4)cc32)sc1C(N)=O)c1ccccc1C(F)(F)F` (top concentration 10000 nM), the “selective drug sensitivity score” value turned out to be 28.3.
On the same count and under the same terms, the value for `Nc1nccc(-c2c(-c3ccc(F)cc3)ncn2C2CCCCC2)n1` (top concentration 10000 nM) was 1.2; that for `O=C(O)c1ccc(-c2c[nH]c3ncc(-c4ccccc4)cc23)cc1C1CCCC1` (top concentration 10000 nM) was 7.56.

The values above are taken from the supplement of paper PMC8967900.
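Also: ALL cell lines in 384-well plates, five doses spanning 10,000-fold, each plate scaled between vehicle and 100 µmol/L benzalkonium chloride controls, sDSS an adapted area-under-curve metric.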
